Source: ChEMBL document CHEMBL3588744, “Structure-Based Optimization of Naphthyridones into Potent ATAD2 Bromodomain Inhibitors” (J Med Chem, 2015)
≈ marks a conversion by molar mass, not a printed value.

Experiments:
[1] = Distribution coefficient, log D of the compound at pH 7.4 by chromatographic method; format: physicochemical; conditions: octanol/water
[2] = physchem; conditions: phosphate buffered saline, pH 7.4, solubility
Description: Solubility of the compound in phosphate buffered saline at pH 7.4 after 1 hr by CLND method

[3] = target: Bromodomain-containing protein 4 (Homo sapiens, UniProt O60885, Y390A)
[4] = Permeability across phosphatidyl choline membrane at pH 7.4 after 3 hrs by HPLC with UV detection method; format: ADME; conditions: not told, read-out: permeability
[5] = target: T1, ATPase family AAA domain-containing protein 2 (Homo sapiens, UniProt Q6PL18)
T1 sequence (Q6PL18 whole entry): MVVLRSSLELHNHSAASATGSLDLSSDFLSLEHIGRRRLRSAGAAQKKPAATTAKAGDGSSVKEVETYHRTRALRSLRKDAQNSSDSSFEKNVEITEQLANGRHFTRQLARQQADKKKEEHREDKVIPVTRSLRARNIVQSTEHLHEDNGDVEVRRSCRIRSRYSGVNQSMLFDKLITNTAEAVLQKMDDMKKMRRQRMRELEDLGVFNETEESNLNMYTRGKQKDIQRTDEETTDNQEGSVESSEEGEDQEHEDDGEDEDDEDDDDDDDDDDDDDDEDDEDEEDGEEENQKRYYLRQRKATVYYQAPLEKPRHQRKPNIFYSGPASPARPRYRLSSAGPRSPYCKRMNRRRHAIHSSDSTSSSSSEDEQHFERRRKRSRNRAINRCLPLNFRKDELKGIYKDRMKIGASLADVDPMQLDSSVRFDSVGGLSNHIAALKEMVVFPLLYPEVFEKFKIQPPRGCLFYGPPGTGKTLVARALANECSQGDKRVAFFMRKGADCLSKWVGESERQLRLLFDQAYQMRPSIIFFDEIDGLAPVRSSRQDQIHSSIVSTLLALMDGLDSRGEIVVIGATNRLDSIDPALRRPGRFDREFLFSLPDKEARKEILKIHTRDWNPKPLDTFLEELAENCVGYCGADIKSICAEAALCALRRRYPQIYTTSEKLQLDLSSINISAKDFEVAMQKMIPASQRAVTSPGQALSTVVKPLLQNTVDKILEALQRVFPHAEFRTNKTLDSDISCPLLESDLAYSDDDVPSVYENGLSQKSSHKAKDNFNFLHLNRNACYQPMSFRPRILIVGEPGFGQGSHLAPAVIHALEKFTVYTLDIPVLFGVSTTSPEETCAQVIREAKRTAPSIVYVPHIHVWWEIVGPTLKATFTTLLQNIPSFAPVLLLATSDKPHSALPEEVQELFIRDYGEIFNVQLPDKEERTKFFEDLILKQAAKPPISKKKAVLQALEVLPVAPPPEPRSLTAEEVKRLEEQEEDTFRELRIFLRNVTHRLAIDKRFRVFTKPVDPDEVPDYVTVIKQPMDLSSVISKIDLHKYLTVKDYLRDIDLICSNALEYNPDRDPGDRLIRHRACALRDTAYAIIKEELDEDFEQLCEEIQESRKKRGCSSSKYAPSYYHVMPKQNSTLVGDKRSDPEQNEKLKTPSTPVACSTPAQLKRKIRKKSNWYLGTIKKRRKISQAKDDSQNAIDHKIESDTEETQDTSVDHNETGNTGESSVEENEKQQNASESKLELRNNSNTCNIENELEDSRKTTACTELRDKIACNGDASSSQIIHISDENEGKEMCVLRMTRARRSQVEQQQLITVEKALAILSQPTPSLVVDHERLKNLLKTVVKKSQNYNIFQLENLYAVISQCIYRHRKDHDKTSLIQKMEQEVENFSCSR

[6] = target: T1, ATPase family AAA domain-containing protein 2; remark: listed apart in the source
Description: Displacement of histone H4 peptide from FLAG-6His-Tev-ATAD2 (981 to 1121) (unknown origin) expressed in Escherichia coli BL21 (DE3) after 30 mins by TR-FRET analysis relative to control

| SMILES | chromatographic logD [1] | solubility kinetic at 1 h [2] [µM] | IC50 [3] [µM] | Papp at 3 h [4] [×10⁻⁶ cm/s] | IC50 [5] [µM] | IC50 [6] [µM] | logD [1] |
| --- | --- | --- | --- | --- | --- | --- | --- |
| Cc1cncc(-c2cnc(N[C@@H]3CCNC[C@H]3OC[C@H]3C[C@@H](C)S(=O)(=O)[C@@H](C)C3)c3[nH]c(=O)c(C)cc23)c1 |  | 30 (≈ 16.2 µg/mL) | 25.1 | < 0.3 | 0.0631 | 0.1 |  |
| Cc1cc2ccnc(N[C@@H]3CCNC[C@H]3OCC3CCS(=O)(=O)CC3)c2[nH]c1=O |  |  | 12.6 | < 0.65 |  |  |  |
| Cc1cc2ccnc(N[C@@H]3CCNC[C@H]3OC[C@@H]3CCS(=O)(=O)C3)c2[nH]c1=O (racemic) | 1 | ≥ 328 | 12.6 |  |  | 5.01 |  |
| Cc1cncc(-c2cnc(N[C@H]3CCNC[C@@H]3OCC3CCCCC3)c3[nH]c(=O)c(C)cc23)c1 | 4.2 | 196 (≈ 90.5 µg/mL) |  |  |  |  |  |
| Cc1cc2ccnc(N[C@@H]3CCNC[C@H]3OC[C@H]3CC[C@H](O)CC3)c2[nH]c1=O (racemic) | 0.7 | ≥ 323 | 12.6 |  |  | 5.01 |  |
| Cc1cc2ccnc(N[C@H]3CCNC[C@@H]3OCC3CCCCC3)c2[nH]c1=O | 3.3 | 140 (≈ 51.9 µg/mL) | 12.6 |  |  |  |  |
| Cc1cc2ccnc(N[C@@H]3CCNC[C@H]3OCC3CCOCC3)c2[nH]c1=O |  |  |  | < 1 |  |  | 1.5 |
| Cc1cc2c(-c3cncc(N)c3)cnc(N[C@@H]3CCNC[C@H]3OCC3CCCCC3)c2[nH]c1=O | 2.2 | 494 (≈ 229 µg/mL) |  |  |  |  |  |
| Cc1cc2ccnc(N[C@@H]3CCNC[C@H]3OC(C)C)c2[nH]c1=O (racemic) | 1.8 | 207 (≈ 65.5 µg/mL) | 25.1 |  |  | 63.1 |  |
| Cc1cc2ccnc(N[C@H]3CCNC[C@@H]3OCC3CCOCC3)c2[nH]c1=O | 1.5 | ≥ 352 | 12.6 |  |  |  |  |
| Cc1cncc(-c2ccc(N[C@@H]3CCNC[C@H]3OCC3CCS(=O)(=O)CC3)c3[nH]c(=O)c(C)cc23)c1 (racemic) |  | 217 (≈ 111 µg/mL) |  | < 0.3 |  |  |  |
| Cc1cc2c(-c3cncnc3)cnc(N[C@@H]3CCNC[C@H]3OCC3CCOCC3)c2[nH]c1=O |  | ≥ 414 | 50.1 | < 0.3 | 0.794 | 1 |  |
| Cc1cc2ccnc(N[C@@H]3CCNC[C@H]3OCCC3CCOCC3)c2[nH]c1=O (racemic) | 1.5 | ≥ 327 | 25.1 |  |  |  |  |

Continued by falling IC50 [3], values first:

| chromatographic logD [1] | solubility kinetic at 1 h [2] [µM] | IC50 [3] [µM] | Papp at 3 h [4] [×10⁻⁶ cm/s] | IC50 [5] [µM] | IC50 [6] [µM] | logD [1] | SMILES |
| --- | --- | --- | --- | --- | --- | --- | --- |
|  | ≥ 315 | 10 | < 0.3 | 0.1 | 0.126 |  | Cc1cc2c(-c3cccnc3)cnc(N[C@@H]3CCNC[C@H]3OCC3CCS(=O)(=O)CC3)c2[nH]c1=O |
| 1.7 | 298 (≈ 111 µg/mL) | 10 |  |  |  |  | Cc1cc2ccnc(N[C@@H]3CCNC[C@H]3OCC3CCOCC3)c2[nH]c1=O (racemic) |
|  | 323 (≈ 170 µg/mL) | 10 | < 0.3 | 0.0501 | 0.0794 |  | CCc1cc2c(-c3cncc(C)c3)cnc(N[C@@H]3CCNC[C@H]3OCC3CCS(=O)(=O)CC3)c2[nH]c1=O |
| 3.1 | ≥ 275 | 10 |  |  | 7.94 |  | Cc1cc2ccnc(N[C@@H]3CCNC[C@H]3OCC3CCCC3)c2[nH]c1=O (racemic) |
|  | 254 (≈ 118 µg/mL) | 10 | 3.25 | 0.251 | 0.316 |  | Cc1cncc(-c2cnc(N[C@@H]3CCNC[C@H]3OCC3CCOCC3)c3[nH]c(=O)c(C)cc23)c1 |
| 1.2 | ≥ 392 | 10 |  |  | 7.94 |  | CC(=O)N1CCC(CO[C@@H]2CNCC[C@H]2Nc2nccc3cc(C)c(=O)[nH]c23)CC1 (racemic) |
|  | ≥ 418 | 7.94 | 3.35 | 0.316 | 0.251 |  | COc1cncc(-c2cnc(N[C@@H]3CCNC[C@H]3OCC3CCOCC3)c3[nH]c(=O)c(C)cc23)c1 |
|  | ≥ 269 | 7.94 | < 0.3 | 0.1 | 0.126 |  | COc1cncc(-c2cnc(N[C@@H]3CCNC[C@H]3OCC3CCS(=O)(=O)CC3)c3[nH]c(=O)c(C)cc23)c1 |
| 2.3 | ≥ 290 | 6.31 |  |  |  |  | Cc1cc2ccnc(N[C@@H]3CCNC[C@H]3OCC(C)C)c2[nH]c1=O (racemic) |
| 0.9 | ≥ 306 | 6.31 |  |  | 10 |  | CO[C@@H]1CNCC[C@H]1Nc1nccc2cc(C)c(=O)[nH]c12 |
|  | ≥ 465 | 6.31 | < 0.3 | 0.2 | 0.251 |  | Cc1cc2c(-c3cccnc3)cnc(N[C@@H]3CCNC[C@H]3OCC3CCOCC3)c2[nH]c1=O |
| 1 | ≥ 309 | 6.31 |  |  |  |  | Cc1cc2ccnc(N[C@@H]3CCNC[C@H]3OCC3CCS(=O)(=O)CC3)c2[nH]c1=O (racemic) |
| 1.8 | ≥ 280 | 6.31 |  |  | 25.1 |  | CCCO[C@@H]1CNCC[C@H]1Nc1nccc2cc(C)c(=O)[nH]c12 (racemic) |
| 1.1 | ≥ 531 | 5.01 |  |  |  |  | Cc1cc2ccnc(N[C@H]3CCNC[C@@H]3OCC3CCS(=O)(=O)CC3)c2[nH]c1=O |
| 4 | ≥ 316 | 5.01 |  |  | 2 |  | Cc1cc2ccnc(N[C@@H]3CCNC[C@H]3OCC3CCCCCC3)c2[nH]c1=O (racemic) |
| 3.3 | 285 (≈ 106 µg/mL) | 5.01 |  |  |  |  | Cc1cc2ccnc(N[C@@H]3CCNC[C@H]3OCC3CCCCC3)c2[nH]c1=O (racemic) |
|  |  | 3.98 | 13 |  |  |  | Cc1cc2ccnc(N[C@@H]3CCNC[C@H]3OCC3CCCCC3)c2[nH]c1=O |
